From patent publication US20130157954A1, “METHODS FOR TREATMENT OR PROPHYLAXIS OF KIDNEY OR LIVER DYSFUNCTION” (NPS PHARMACEUTICALS, INC., priority 2010, published 2013)

Assay: Example 2: liver biomarkers (albumin, gamma glutamyl transferase, total bilirubin, ALT, AST, ALP) in short bowel syndrome patients, every four weeks for 24 weeks; also sorted by >10% change from baseline
Assay type: in vivo, Human
Details: 0.05 mg/kg/d; for Alkaline Phosphatase: subjects Within 10% of Baseline / Alkaline Phosphatase: subjects with >10% decrease from Baseline / Alkaline Phosphatase: subjects with >10% increase from Baseline / Bilirubin: subjects Within 10% of Baseline / Bilirubin: subjects with >10% decrease from Baseline / Bilirubin: subjects with >10% increase from Baseline / ALT: subjects Within 10% of Baseline / ALT: subjects with >10% decrease from Baseline / ALT: subjects with >10% increase from Baseline / AST: subjects Within 10% of Baseline / AST: subjects with >10% decrease from Baseline / AST: subjects with >10% increase from Baseline / Albumin: subjects Within 10% of Baseline / Albumin: subjects with >10% decrease from Baseline / Albumin: subjects with >10% increase from Baseline: m = 38
Experimental: To further confirm the results of Example 1, a further study was conducted involving more individuals and additional diagnostic biomarkers. Human patients with short bowel syndrome were divided into two groups: a control group (43 total individuals) to receive placebo, and an experimental group (42 total individuals) to receive teduglutide at 0.05 mg/kg/day throughout the study. Patients were treated by subcutaneous injection of placebo or the appropriate dose of teduglutide. Known biomarkers of liver function were monitored every four weeks, for 24 weeks. The liver biomarkers tested included albumin, gamma glutamyl transferase, total bilirubin, ALT and AST and ALP. Before administration of placebo or teduglutide, diagnostic biomarker levels were tested to establish a baseline for each individual.
To determine the effect of GLP-2 on the levels of the diagnostic biomarkers, the average level of each biomarker was measured for the placebo and teduglutide treated groups for each visit. Furthermore, the average change from baseline was calculated using the established baseline values. For FIGS. 17-28, p-values were calculated using the t-test.
P values are provided, which were calculated for each distribution of biomarker changes for each week using the chi-squared test.

CC[C@H](C)[C@H](NC(=O)[C@H](Cc1ccccc1)NC(=O)[C@H](CC(=O)O)NC(=O)[C@H](CCCNC(=N)N)NC(=O)[C@H](C)NC(=O)[C@H](C)NC(=O)[C@H](CC(C)C)NC(=O)[C@H](CC(N)=O)NC(=O)[C@H](CC(=O)O)NC(=O)[C@H](CC(C)C)NC(=O)[C@@H](NC(=O)[C@@H](NC(=O)[C@H](CC(N)=O)NC(=O)[C@H](CCSC)NC(=O)[C@H](CCC(=O)O)NC(=O)[C@H](CC(=O)O)NC(=O)[C@H](CO)NC(=O)[C@H](Cc1ccccc1)NC(=O)[C@H](CO)NC(=O)CNC(=O)[C@H](CC(=O)O)NC(=O)CNC(=O)[C@@H](N)Cc1c[nH]cn1)[C@@H](C)O)[C@@H](C)CC)C(=O)N[C@@H](CC(N)=O)C(=O)N[C@@H](Cc1c[nH]c2ccccc12)C(=O)N[C@@H](CC(C)C)C(=O)N[C@H](C(=O)N[C@@H](CCC(N)=O)C(=O)N[C@H](C(=O)N[C@@H](CCCCN)C(=O)N[C@H](C(=O)N[C@H](C(=O)N[C@@H](CC(=O)O)C(=O)O)[C@@H](C)O)[C@@H](C)CC)[C@@H](C)O)[C@@H](C)CC [teduglutide]
Alkaline Phosphatase: subjects Within 10% of Baseline (Week 16): 7 (18.4%) n (%) | Alkaline Phosphatase: subjects with >10% decrease from Baseline (Week 16): 23 (60.5%) n (%) | Alkaline Phosphatase: subjects with >10% increase from Baseline (Week 16): 8 (21.1%) n (%) | Bilirubin: subjects Within 10% of Baseline (Week 16): 5 (13.2%) n (%) | Bilirubin: subjects with >10% decrease from Baseline (Week 16): 24 (63.2%) n (%) | Bilirubin: subjects with >10% increase from Baseline (Week 16): 9 (23.7%) n (%) | ALT Change from Baseline, Max (Week 20): 24 U/L | ALT Change from Baseline, Median (Week 20): −6.5 U/L | ALT Change from Baseline, Min (Week 20): −55 U/L | ALT Observed Value, Max (Week 20): 149 U/L | ALT Observed Value, Min (Week 20): 5 U/L | AST Change from Baseline, Max (Week 20): 10 U/L | AST Change from Baseline, Mean (Week 20): −4.2 U/L | AST Change from Baseline, Median (Week 20): −2.5 U/L | AST Change from Baseline, Min (Week 20): −38 U/L | AST Observed Value, Max (Week 20): 77 U/L | AST Observed Value, Min (Week 20): 10 U/L | Albumin Change from Baseline, Max (Week 20): 4 g/L | Albumin Change from Baseline, Mean (Week 20): -0.6 g/L | Albumin Change from Baseline, Median (Week 20): -1 g/L | Albumin Change from Baseline, Min (Week 20): -8 g/L | Albumin Observed Value, Max (Week 20): 49 g/L | Albumin Observed Value, Median (Week 20): 43 g/L | Albumin Observed Value, Min (Week 20): 33 g/L | Alkaline Phosphatase Change from Baseline, Max (Week 20): 77 U/L | Alkaline Phosphatase Change from Baseline, Min (Week 20): −117 U/L | Alkaline Phosphatase Observed Value, Max (Week 20): 303 U/L | Alkaline Phosphatase Observed Value, Min (Week 20): 54 U/L | Bilirubin Change from Baseline, Max (Week 20): 2.8 µmol/L | Bilirubin Change from Baseline, Median (Week 20): -1.7 µmol/L | Bilirubin Change from Baseline, Min (Week 20): -25.5 µmol/L | Bilirubin Observed Value, Max (Week 20): 31.9 µmol/L | Bilirubin Observed Value, Min (Week 20): 3.7 µmol/L | Gamma Glutamyl Transferase Change from Baseline, Max (Week 20): 57 U/L | Gamma Glutamyl Transferase Change from Baseline, Mean (Week 20): −9.6 U/L | Gamma Glutamyl Transferase Change from Baseline, Median (Week 20): −8 U/L | Gamma Glutamyl Transferase Change from Baseline, Min (Week 20): −146 U/L | Gamma Glutamyl Transferase Observed Value, Max (Week 20): 261 U/L | Gamma Glutamyl Transferase Observed Value, Min (Week 20): 8 U/L | ALT: subjects Within 10% of Baseline (Week 20): 10 (26.3%) n (%) | ALT: subjects with >10% decrease from Baseline (Week 20): 23 (60.5%) n (%) | ALT: subjects with >10% increase from Baseline (Week 20): 5 (13.2%) n (%) | AST: subjects Within 10% of Baseline (Week 20): 11 (28.9%) n (%) | AST: subjects with >10% decrease from Baseline (Week 20): 20 (52.6%) n (%) | AST: subjects with >10% increase from Baseline (Week 20): 7 (18.4%) n (%) | Albumin: subjects Within 10% of Baseline (Week 20): 37 (97.4%) n (%) | Albumin: subjects with >10% decrease from Baseline (Week 20): 1 (2.6%) n (%) | Albumin: subjects with >10% increase from Baseline (Week 20): 0 n (%) | Alkaline Phosphatase: subjects Within 10% of Baseline (Week 20): 12 (31.6%) n (%) | Alkaline Phosphatase: subjects with >10% decrease from Baseline (Week 20): 23 (60.5%) n (%) | Alkaline Phosphatase: subjects with >10% increase from Baseline (Week 20): 3 (7.9%) n (%) | Bilirubin: subjects Within 10% of Baseline (Week 20): 5 (13.2%) n (%) | Bilirubin: subjects with >10% decrease from Baseline (Week 20): 25 (65.8%) n (%) | Bilirubin: subjects with >10% increase from Baseline (Week 20): 8 (21.1%) n (%) | ALT Change from Baseline, Max (Week 24): 21 U/L | ALT Change from Baseline, Median (Week 24): −7.5 U/L | ALT Change from Baseline, Min (Week 24): −60 U/L | ALT Observed Value, Max (Week 24): 91 U/L | ALT Observed Value, Min (Week 24): 7 U/L | AST Change from Baseline, Max (Week 24): 14 U/L | AST Change from Baseline, Mean (Week 24): −5.8 U/L | AST Change from Baseline, Median (Week 24): −5 U/L | AST Change from Baseline, Min (Week 24): −47 U/L | AST Observed Value, Max (Week 24): 73 U/L | AST Observed Value, Median (Week 24): 23 U/L | AST Observed Value, Min (Week 24): 11 U/L | Albumin Change from Baseline, Max (Week 24): 3 g/L | Albumin Change from Baseline, Mean (Week 24): -0.4 g/L | Albumin Change from Baseline, Median (Week 24): 0 g/L | Albumin Change from Baseline, Min (Week 24): -8 g/L | Albumin Observed Value, Max (Week 24): 48 g/L | Albumin Observed Value, Median (Week 24): 42 g/L | Albumin Observed Value, Min (Week 24): 33 g/L | Alkaline Phosphatase Change from Baseline, Max (Week 24): 33 U/L | Alkaline Phosphatase Change from Baseline, Min (Week 24): −122 U/L | Alkaline Phosphatase Observed Value, Max (Week 24): 328 U/L | Alkaline Phosphatase Observed Value, Median (Week 24): 88 U/L | Alkaline Phosphatase Observed Value, Min (Week 24): 49 U/L | Bilirubin Change from Baseline, Max (Week 24): 3.3 µmol/L | Bilirubin Change from Baseline, Min (Week 24): -26.1 µmol/L | Bilirubin Observed Value, Max (Week 24): 31.3 µmol/L | Bilirubin Observed Value, Median (Week 24): 6.8 µmol/L | Bilirubin Observed Value, Min (Week 24): 2.5 µmol/L | Gamma Glutamyl Transferase Change from Baseline, Max (Week 24): 46 U/L | Gamma Glutamyl Transferase Change from Baseline, Median (Week 24): −6 U/L | Gamma Glutamyl Transferase Change from Baseline, Min (Week 24): −144 U/L | Gamma Glutamyl Transferase Observed Value, Max (Week 24): 228 U/L | Gamma Glutamyl Transferase Observed Value, Min (Week 24): 7 U/L | ALT: subjects Within 10% of Baseline (Week 24): 10 (26.3%) n (%) | ALT: subjects with >10% decrease from Baseline (Week 24): 24 (63.2%) n (%) | ALT: subjects with >10% increase from Baseline (Week 24): 4 (10.5%) n (%) | AST: subjects Within 10% of Baseline (Week 24): 8 (21.1%) n (%) | AST: subjects with >10% decrease from Baseline (Week 24): 24 (63.2%) n (%) | AST: subjects with >10% increase from Baseline (Week 24): 6 (15.8%) n (%) | Albumin: subjects Within 10% of Baseline (Week 24): 36 (94.7%) n (%) | Albumin: subjects with >10% decrease from Baseline (Week 24): 2 (5.3%) n (%) | Albumin: subjects with >10% increase from Baseline (Week 24): 0 n (%) | Alkaline Phosphatase: subjects Within 10% of Baseline (Week 24): 9 (23.7%) n (%) | Alkaline Phosphatase: subjects with >10% decrease from Baseline (Week 24): 23 (60.5%) n (%) | Alkaline Phosphatase: subjects with >10% increase from Baseline (Week 24): 6 (15.8%) n (%) | Bilirubin: subjects Within 10% of Baseline (Week 24): 6 (15.8%) n (%) | Bilirubin: subjects with >10% decrease from Baseline (Week 24): 26 (68.4%) n (%) | Bilirubin: subjects with >10% increase from Baseline (Week 24): 6 (15.8%) n (%)
